Reference: patent US20090029982A1, “PROTEIN KINASE INHIBITORS” (SUPERGEN, INC., priority 2005, published 2009)

Experiments:
[1] = system: HT-29 human colon cancer cells; experiment: HT-29 xenograft study in mice; type: in vivo; conditions: 25 mg/kg intraperitoneally, q.d.×5 for two weeks
Description: In order to evaluate the effectiveness of MP277 against tumor cells in a living system, a xenograft study was performed in mice. 1×10^7 HT-29 human colon cancer cells were injected subcutaneously into 16 Nu/Nu athymic nude mice (Charles River Laboratories, Wilmington, Mass.). Tumor volume was measured according to the formula ((Width)^2*Length)/2. Tumors were allowed to grow to approximately 100 mm^3 in volume (Day 0), at which point mice were randomized to two groups: Eight mice were treated with 25 mg/kg MP277, while the other eight were given an equal volume of drug vehicle. For this study, the drug vehicle used was 60% propylene glycol, 30% polyethylene glycol 300, 10% ethanol with 150 mg/mL 2-hydroxypropyl-beta-cyclodextrin. Each mouse received 0.1 mL of drug or vehicle intraperitoneally on a q.d.×5 schedule for two weeks, with two days rest between cycles.

[2] = target: T1, recombinant aurora-2 kinase (Homo sapiens, UniProt O14965); experiment: aurora-2 kinase inhibition assay (Kinase-Glo, ATP remaining); type: biochemical; conditions: Example 20, Table 2; 3 μM ATP, 62.5 μM Kemptide, 30° C., two hours; read-out: IC50 A2K
T1 construct: purchased Upstate, Lake Placid, N.Y; host or cells: sf9 cells
T1 sequence (O14965 1-403): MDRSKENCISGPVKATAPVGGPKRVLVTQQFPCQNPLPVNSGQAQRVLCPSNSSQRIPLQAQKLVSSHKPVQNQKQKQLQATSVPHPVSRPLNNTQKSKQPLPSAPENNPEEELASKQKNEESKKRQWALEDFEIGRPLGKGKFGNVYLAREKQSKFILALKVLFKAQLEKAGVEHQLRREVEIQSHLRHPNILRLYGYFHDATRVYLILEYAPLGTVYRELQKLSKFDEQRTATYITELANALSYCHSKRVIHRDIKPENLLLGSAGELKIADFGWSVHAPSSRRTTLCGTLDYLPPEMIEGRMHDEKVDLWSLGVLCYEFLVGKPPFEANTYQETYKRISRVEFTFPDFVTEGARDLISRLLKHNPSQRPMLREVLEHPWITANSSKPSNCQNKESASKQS
Description: In this assay kinase activity was determined by quantifying the amount of ATP remaining in solution following a kinase reaction by measuring the light units (LU) produced by luciferase using a luminometer. Percent inhibition was determined for individual compounds by comparing luminometer readings of drug-treated reactions to controls containing no drug (DMSO control) and no Aurora-2 enzyme (ATP control) in the following equation: […]
In a 50 μl reaction, recombinant aurora-2 kinase produced in sf9 cells (Upstate, Lake Placid, N.Y.) was incubated at 30° C. for two hours with 62.5 μM Kemptide (Calbiochem, San Diego, Calif.), 3 μM ATP (Invitrogen, Carlsbad, Calif.) and kinase reaction buffer (40 mM Tris-HCl, 10 mM MgCl2 and 0.1 μg/μl bovine serum albumin (BSA)). This reaction was carried out in the presence of drug substances, which had been previously diluted to desired concentrations in DMSO. […] Kinase activity is determined by quantifying the amount of ATP remaining in solution following the kinase reaction by measuring the light units (LU) produced by luciferase using a luminometer (Thermo-Electron, Vantaa, Finland).
Briefly, kinase activity was determined by quantifying the amount of ATP remaining in solution following a kinase reaction by measuring the light units (LU) produced by luciferase using a luminometer. […]

SMILES	toxicity noted through the duration of the study ([1]; nude mice)	inhibition of tumor growth in vivo ([1]; subcutaneous HT-29 xenograft, FIG. 1)	IC50 [2] [nM]
CC(=O)NS(=O)(=O)c1ccc(NC(=S)N2CCN(c3ncnc4[nH]c5cc(C(F)(F)F)c(Cl)cc5c34)CC2)cc1 [Compound 1, 4-(6-Chloro-7-trifluoromethyl-9H-pyrimido[4,5-b]indol-4-yl)-piperazine-1-carbothioic acid (4-acetylsulfamoyl-phenyl)-amide]	No noticeable toxicity	effective for inhibiting tumor growth in vivo	
COc1cc2[nH]c3ncnc(N4CCN(C(=S)Nc5ccc(S(=O)(=O)NC(C)=O)cc5)CC4)c3c2cc1OC [Compound 2]			5
